The target of experiment [1] is T1, LC3B (Homo sapiens, UniProt Q9GZQ8).
T1 construct: His6 (N, cleaved yes); MBP (N, cleaved yes); made in house; host or cells: E. coli BL21-codonplus (DE3)-RIL
The experiment in a line: Fluorescence polarization binding of CF-labelled LIR peptides to purified LC3B. To be noted: CF-labelled peptide 2.5 µM (25 µL) + LC3B 0.2–330 µM (25 µL), HEPES buffer 50 mM pH 7.2, 50 mM NaCl, 2 mM DTE, one site-specific binding fit, three independent replications, read-out: Kd (dissociation constant) for LC3B. As for the experimental part: Binding experiments were done in a black 384-microwell plate. […] Each CF-labelled peptide in a volume of 25 µL at a concentration of 2.5 µM was combined with 25 µL of LC3B at a concentration range from 0.2–330 µM. The fluorescent polarization was measured with the excitation and emission wavelengths of […], respectively. The obtained polarization data were corrected by subtraction of the peptide alone (blank). The dissociation constant (Kd) was quantified using a nonlinear curve fitting the site-specific binding on GraphPad Prism 5.0 for Windows (GraphPad Software, La Jolla, CA, USA). Experiments were performed in three independent replications.

Another experiment has as its system HepG2 WT cells. The experiment in a line: Colocalization of EGFP-ATP7B-WT with TGN, lysosome (LAMP1) and LC3B markers. Conditions: 200 µM BCS, 24 h. The experiment is classed as cell-based, human. The protocol: For the detection of the effect of copper on autophagosome-lysosome fusion, 50,000 cells of each HepG2 WT and HepG2 ATP7B^−/− were grown on laminin-coated coverslips for 24 h, transduced with BacMam-GFP-RFP-LC3B overnight according to the manufacturer’s recommendations. The cells were then treated with CuSO4 at a concentration range from 100 µM to 800 µM for 24 h, fixed with 4% paraformaldehyde for 15 min and finally stained with 250 ng/mL DAPI (Thermo Fisher scientific, Molecular Probes, D1306) for 5 min. The coverslips were fixed on a glass slide using Mowiol 4–88 (Sigma Aldrich, 81381). The fluorescence cell imaging was acquired using a confocal Zeiss LSM 780 microscope with a 63 × 1.40 Oil DIC M27. […] Red and yellow puncta count per cell was done using the particle analysis in image J. For protein ATP7B trafficking analysis, 50,000 cells of HepG2 WT and HepG2 ATP7B^−/− were cultured in a 500 µL cell culture medium on a laminin-coated coverslip for 24 h, then transfected with EGFP-ATP7B. After 6 h post transfection, cells were transduced with BacMam-RFP-Golgi or the BacMam-RFP-Lysosome overnight, then treated with various concentrations of CuSO4 or 200 µM of bathocuproine disulfonate (BCS) for 24 h or EBSS for 2 h, respectively. To detect LC3B or endogenous ATP7B, the fixed cells were incubated with anti-LC3B or anti-ATP7B antibodies at 4 °C overnight followed by secondary antibody incubation, Alexa Fluor 568 goat anti-rabbit, at temperature for 1 h in the dark. Pearson’s correlation coefficient was analyzed per cell using the colocalization threshold of ImageJ Fiji.

For experiment [2], the target named is T1, LC3B. The experiment in a line: Pull-down with resin-bound GST-LC3B as bait from transfected HEK293H cell lysate. The format is binding. To be noted: 500 µg HEK293H lysate, western blot, repeated two times. The protocol: GST tagged LC3B was used as a bait to trap the full-length ATP7B from a lysate obtained from ATP7B transfected human embryonic kidney 293 H cell line (HEK293H) cells. To this end, 100,000 cells of HEK293H were cultured in 1 mL of DMEM media (Thermo Fisher Scientific, 31966-047) plus 10% fetal bovine serum (FBS) (Fisher Scientific, 10309433) and 1% Penicillin-Streptomycin (P/S) (Thermo Fisher Scientific, 15140122). Once the cells reached 80% confluence, cells were transfected with pIRES-GFP carrying full-length ATP7B (NM_000053.4) or its W1452A/L1455A mutant using Lipofectamine LTX and plus reagent (Invitrogen, 15338100). […] Blots were imaged on an Infrared fluorescence imaging system using Li-Cor 9120 Odyssey (LI-COR Biosciences, Bad Homburg, Germany). Protein band intensity quantification was done using ImageJ (National Institutes of Health, Bethesda, MD, USA).
In general terms: In western blotting, separated proteins are transferred to a membrane and probed.

Peptide text beside a SMILES is read from it. * marks the point of attachment. 5FAM = O=C1OC2(c3ccc(O)cc3Oc3cc(O)ccc32)c2ccc(C(=O)*)cc21 Some results are limits rather than exact numbers.

In the case of `CC(C)C[C@H](NC(=O)[C@H](C)NC(=O)[C@H](CC(C)C)NC(=O)[C@H](CO)NC(=O)[C@H](C)NC(=O)[C@H](CCCCN)NC(=O)[C@H](CC(=O)O)NC(=O)CNC(=O)[C@H](CC(=O)O)NC(=O)[C@H](CC(=O)O)NC(=O)[C@H](CC(=O)O)NC(=O)[C@H](C)NC(=O)c1ccc2c(c1)C(=O)OC21c2ccc(O)cc2Oc2cc(O)ccc21)C(=O)N[C@@H](CC(N)=O)C(=O)NCC(=O)N[C@@H](CCCNC(=N)N)C(=O)N[C@@H](CC(=O)O)C(N)=O` [LIR3^W1452A,L1455A] (5FAM-ADDDGDKASLALNGRD-NH2), the Kd at LC3B [1] is above 250 µM.
Take `CSCC[C@H](NC(=O)c1ccc2c(c1)C(=O)OC21c2ccc(O)cc2Oc2cc(O)ccc21)C(=O)N[C@@H](CCCCN)C(=O)N[C@@H](CCCCN)C(=O)N[C@@H](CO)C(=O)N[C@@H](Cc1ccccc1)C(=O)N[C@@H](C)C(=O)N[C@@H](Cc1ccccc1)C(=O)N[C@@H](CC(=O)O)C(=O)N[C@@H](CC(N)=O)C(=O)N[C@H](C(=O)NCC(=O)N[C@@H](Cc1ccc(O)cc1)C(=O)N[C@@H](CCC(=O)O)C(=O)NCC(=O)NCC(=O)N[C@@H](CC(C)C)C(=O)N[C@@H](CC(=O)O)C(N)=O)C(C)C` [LIR1] (5FAM-MKKSFAFDNVGYEGGLD-NH2): the Kd on LC3B [1] was above 250 µM.
For the molecule `Cc1cc(-c2ccc(S(=O)(=O)O)cc2)c2ccc3c(-c4ccc(S(=O)(=O)O)cc4)cc(C)nc3c2n1` [BCS, bathocuproine disulfonate], the “fold elevation of ATP7B fraction in the TGN vs basal medium condition” value in the experiment with HepG2 WT cells is “about 12.6 fold”. In the experiment with HepG2 WT cells (from mean Pearson's correlation coefficient, 30 cells), the “ATP7B fraction in the TGN” value was determined as 32.8%.
Regarding `CC(C)C[C@H](NC(=O)[C@H](CO)NC(=O)[C@H](C)NC(=O)[C@H](CCCCN)NC(=O)[C@H](CC(=O)O)NC(=O)CNC(=O)[C@H](CC(=O)O)NC(=O)[C@H](CC(=O)O)NC(=O)[C@H](CC(=O)O)NC(=O)[C@H](C)NC(=O)c1ccc2c(c1)C(=O)OC21c2ccc(O)cc2Oc2cc(O)ccc21)C(=O)N[C@@H](CC(C)C)C(=O)N[C@@H](CC(C)C)C(=O)N[C@@H](CC(N)=O)C(=O)NCC(=O)N[C@@H](CCCNC(=N)N)C(=O)N[C@@H](CC(=O)O)C(N)=O` [LIR3^W1452A] (5FAM-ADDDGDKASLLLNGRD-NH2), the Kd on LC3B [1] is above 250 µM.
As to `CC(C)[C@H](NC(=O)[C@H](Cc1ccc(O)cc1)NC(=O)[C@H](CO)NC(=O)[C@@H](NC(=O)[C@H](CCC(N)=O)NC(=O)[C@H](CC(=O)O)NC(=O)[C@H](Cc1c[nH]c2ccccc12)NC(=O)[C@@H]1CCCN1C(=O)[C@@H](NC(=O)[C@H](C)NC(=O)[C@H](CCCNC(=N)N)NC(=O)[C@@H]1CCCN1C(=O)[C@H](CO)NC(=O)[C@H](CC(=O)O)NC(=O)c1ccc2c(c1)C(=O)OC21c2ccc(O)cc2Oc2cc(O)ccc21)[C@@H](C)O)C(C)C)C(=O)N[C@@H](CO)C(=O)N[C@@H](CCC(N)=O)C(N)=O` [LIR2] (5FAM-DSPRATPWDQVSYVSQ-NH2), on LC3B [1], the Kd was above 250 µM.

B1: wild-type ATP7B: full-length recombinant copper-transporting ATPase ATP7B from transfected HEK293H cell lysate (protein)
chain: MPEQERQITAREGASRKILSKLSLPTRAWEPAMKKSFAFDNVGYEGGLDGLGPSSQVATSTVRILGMTCQSCVKSIEDRISNLKGIISMKVSLEQGSATVKYVPSVVCLQQVCHQIGDMGFEASIAEGKAASWPSRSLPAQEAVVKLRVEGMTCQSCVSSIEGKVRKLQGVVRVKVSLSNQEAVITYQPYLIQPEDLRDHVNDMGFEAAIKSKVAPLSLGPIDIERLQSTNPKRPLSSANQNFNNSETLGHQGSHVVTLQLRIDGMHCKSCVLNIEENIGQLLGVQSIQVSLENKTAQVKYDPSCTSPVALQRAIEALPPGNFKVSLPDGAEGSGTDHRSSSSHSPGSPPRNQVQGTCSTTLIAIAGMTCASCVHSIEGMISQLEGVQQISVSLAEGTATVLYNPSVISPEELRAAIEDMGFEASVVSESCSTNPLGNHSAGNSMVQTTDGTPTSVQEVAPHTGRLPANHAPDILAKSPQSTRAVAPQKCFLQIKGMTCASCVSNIERNLQKEAGVLSVLVALMAGKAEIKYDPEVIQPLEIAQFIQDLGFEAAVMEDYAGSDGNIELTITGMTCASCVHNIESKLTRTNGITYASVALATSKALVKFDPEIIGPRDIIKIIEEIGFHASLAQRNPNAHHLDHKMEIKQWKKSFLCSLVFGIPVMALMIYMLIPSNEPHQSMVLDHNIIPGLSILNLIFFILCTFVQLLGGWYFYVQAYKSLRHRSANMDVLIVLATSIAYVYSLVILVVAVAEKAERSPVTFFDTPPMLFVFIALGRWLEHLAKSKTSEALAKLMSLQATEATVVTLGEDNLIIREEQVPMELVQRGDIVKVVPGGKFPVDGKVLEGNTMADESLITGEAMPVTKKPGSTVIAGSINAHGSVLIKATHVGNDTTLAQIVKLVEEAQMSKAPIQQLADRFSGYFVPFIIIMSTLTLVVWIVIGFIDFGVVQRYFPNPNKHISQTEVIIRFAFQTSITVLCIACPCSLGLATPTAVMVGTGVAAQNGILIKGGKPLEMAHKIKTVMFDKTGTITHGVPRVMRVLLLGDVATLPLRKVLAVVGTAEASSEHPLGVAVTKYCKEELGTETLGYCTDFQAVPGCGIGCKVSNVEGILAHSERPLSAPASHLNEAGSLPAEKDAVPQTFSVLIGNREWLRRNGLTISSDVSDAMTDHEMKGQTAILVAIDGVLCGMIAIADAVKQEAALAVHTLQSMGVDVVLITGDNRKTARAIATQVGINKVFAEVLPSHKVAKVQELQNKGKKVAMVGDGVNDSPALAQADMGVAIGTGTDVAIEAADVVLIRNDLLDVVASIHLSKRTVRRIRINLVLALIYNLVGIPIAAGVFMPIGIVLQPWMGSAAMAASSVSVVLSSLQLKCYKKPDLERYEAQAHGHMKPLTASQVSVHIGMDDRWRDSPRATPWDQVSYVSQVSLSSLTSDKPSRHSAAADDDGDKWSLLLNGRDEEQYI
In the case of B1, the “ATP7B in elution fraction of GST-LC3B pull-down” value in the experiment with LC3B [2] is “detected in the elution fraction”.

The Kd is the constant that tells how readily two partners part at equilibrium.

The values are drawn from paper PMC8625360 (Cells, 2021).
